Laboratory results published in ChEMBL document CHEMBL1201862, “PubChem BioAssay data set” (2004).
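96-well plates; 48 h exposure; 5 concentrations. Endpoints by linear interpolation between flanking doses. Not reached: highest tested concentration assigned. Here, GI50 denotes the concentration required for 50% inhibition of growth.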 The source made the active and inactive calls. Cut-off read from the data, not from the text of the source: active = GI50 up to about 1.1 µM and inactive = higher.

Legend:
Assay in all cases: growth of human tumour cells (NCI), 48 h
[1] = system: DLD-1
[2] = system: DMS-114
[3] = system: HOP-18
[4] = system: KM-20L2
[5] = system: LXFL 529
[6] = system: M19-MEL
[7] = system: XF498
[8] = system: DMS-273

Measured: GI50

O=c1c2ccccc2[nH]c(=S)n1-c1ccc(Br)cc1
inactive: [1] 49.7 µM | [2] 46.7 µM | [3] > 100 µM | [4] 63.4 µM | [5] 37.3 µM | [6] 74.8 µM | [7] > 100 µM

O=c1c2cccnc2ncn1CCCN1CCOCC1
inactive: [1] > 100 µM | [2] > 100 µM | [8] > 100 µM | [4] > 100 µM | [5] > 100 µM | [6] > 100 µM | [7] > 100 µM

COc1cc(-c2n[nH]cc2CCCC(=O)Nc2ccccc2[N+](=O)[O-])ccc1O
inactive: [1] > 100 µM | [2] 25.4 µM | [8] 66.7 µM | [3] > 100 µM | [5] > 100 µM | [7] > 100 µM

Cc1c(C2Cc3ccccc3N2)c2ccccc2n1C (stereo not given)
inactive: [1] > 100 µM | [2] > 100 µM | [8] > 100 µM | [4] > 100 µM | [5] > 100 µM | [6] > 100 µM | [7] > 100 µM

CCc1cccc(C)c1NC(=O)CCc1n[nH]c(=S)o1
inactive: [1] 44.4 µM | [8] 37.8 µM | [3] > 100 µM | [4] > 100 µM | [5] > 100 µM | [6] > 100 µM

O=C1NC2OC(CO)C(O)C(O1)C2O (stereo not given)
inactive: [1] > 100 µM | [2] > 100 µM | [8] > 100 µM | [3] > 100 µM | [4] > 100 µM | [5] > 100 µM | [6] > 100 µM | [7] > 100 µM

CCOC(=O)Cc1csc(Nc2ccccc2[N+](=O)[O-])n1
inactive: [2] > 100 µM | [8] 99.1 µM | [3] > 100 µM | [4] > 100 µM | [5] > 100 µM | [6] > 100 µM

O=C(Cc1nc2ccccc2s1)C(=O)Nc1ccc(Cl)cc1
inactive: [1] > 100 µM | [2] > 100 µM | [8] > 100 µM | [3] > 100 µM | [4] > 100 µM | [5] > 100 µM | [6] > 100 µM

CC1C=C(OC(=O)c2ccccc2)C(=O)C(n2cc(F)c(=O)[nH]c2=O)O1 (stereo not given)
inactive: [1] 22.8 µM | [2] > 100 µM | [8] 42.8 µM | [3] > 100 µM | [4] 94.6 µM | [5] 56 µM | [6] 93.3 µM | [7] 48.1 µM

CC(=O)O[C@H]1CC[C@@]2(C)C(=CC[C@H]3C(CC#N)[C@@](C)(C#N)CCC32)C1 (stereo not given in full)
inactive: [1] > 100 µM | [2] > 100 µM | [8] > 100 µM | [4] > 100 µM | [5] > 100 µM | [6] > 100 µM | [7] > 100 µM

COc1ccc(NC(=O)CC2S/C(=N\c3ccccc3C)NC2=O)c([N+](=O)[O-])c1 (stereo not given)
inactive: [1] > 100 µM | [8] > 100 µM | [4] > 100 µM | [5] > 100 µM | [6] > 100 µM | [7] > 100 µM
